Data from US4810699A, “Substituted 1,3,4,9-tetrahydropyrano[3,4,-b]indole-1-acetic acids, pharmaceutical compositions containing them, and methods for treating inflammatory conditions and for analgesic purposes using them” (American Home Products Corporation, priority 1987, dated 1989).

Experiments:
Adjuvant Edema = test: Preventative Adjuvant Edema; assay type: in vivo, Male Sprague Dawley rats; conditions: rat; for Preventative Adjuvant Edema, percent inhibition: p.o.; for ED50: po, days 0, 1 and 2
Description: This test is a primary screen for anti-inflammatory drugs.
Male Sprague Dawley rats (180-200 g) are used. The animals have free access to water but food is withdrawn 18 hours before testing.
Drug Preparations and Administration:
Freund's complete adjuvant is prepared by suspending 5 mg of killed and dried Mycobacterium butyricum (Difco) in 1 mL mineral oil. The test compound are dissolved, or suspended in 0.5% Tween 80 in distilled water according to their solubility. For primary screening all drugs are administered by gastric lavage at the arbitrary dosage of 25 mg/kg, p.o. in a volume of 0.5 mL/100 g body weight to groups of 10 animals.
The method is essentially that described by Wax et al, J. Pharmacol. Exp. Ther., 192, 166-171 (1975). Groups of rats are injected intradermally in the left hind paw with 0.1 mL of Freund's complete adjuvant. The test compound or vehicle is administered immediately before the adjuvant, 24 hours and 48 hours after the adjuvant (days 0, 1 and 2). The injected hind paw volume is measured before the injection of adjuvant and 24 hrs. after the last drug administration (day 3) by means of a plethysmometer (Buxco Electronics Inc.). The difference between the hind paw volume on day 0 and day 3 represents the edema volume. Etodolac (25 mg/kg, p.o.) is included as a positive control.
The mean edema volume (expressed as mL±SEM) is calculated for each group and the percentage protection conferred by the drug is calculated: [formula] where c is the mean edema volume for the vehicle-treated (0.5% Tween 80 in distilled water) controls and t is the mean edema volume for the drug treated group.

[1] = tested on: Phenylbenzoquinone-induced Writhing; test: Drug Effects on Phenylbenzoquinone-induced Writhing in Mice; assay type: in vivo, Male Swiss albino mice; conditions: mouse, p.o., 60 min before PBQ i.p.; for Phenylquinone Writhing in Mice, percent inhibition: dose 10 mg/kg; for ED50: po, read-out: Phenylquinone Writhing in Mice ED50
Description: A further test used to determine the utility of the compounds of the present invention is designated: Drug Effects on Phenylbenzoquinone-induced Writhing in Mice
The objective of this test is to determine the ability of test drugs to inhibit the nociceptive (pain) response of mice injected with a chemical irritant. This test is a primary screen for both peripheral and centrally acting analgesic drugs.
Male Swiss albino mice (15-25 g). The animals are fasted for 18 hours prior to use but have free access to water.
Drug Preparation and Administration:
Drugs are dissolved or suspended according to their solubility in 0.5% Tween 80 in distilled water. They are administered by gastric gavage in a volume of 5 mL/kg. For primary screening all drugs are administered at the arbitrary dosage of 25 mg/kg, p.o. to a group of 10 mice.
A modification of the method of Siegmund et al, Proc. Soc. Exp. Biol. Med., 95, 729-731 (1957) is used. Groups of 5 mice are dosed with the test compound or vehicle control. Sixty minutes later the animals are injected i.p. with 0.3 mL/20 g body weight of a 0.02% solution of phenylbenzoquinone (PBQ; 2-phenyl-1,4-benzoquinone) and placed in individual observation boxes. The number of writhing or abdominal squirming movements made by each mouse during the following 15 min. period is counted. The experiment is repeated with another group of 5 mice and the mean number of writhes per mouse for a group of 10 mice is calculated.
Drug treated and vehicle-treated control groups are compared and the percentage protection conferred by the drug is calculated: [formula] where c=mean number of writhes in the control group
t=mean number of writhes in the test drug group

Row | SMILES | Preventative Adjuvant Edema, percent inhibition (Adjuvant Edema; dose 25 mg/kg) | Phenylquinone Writhing in Mice, percent inhibition [1] | other results
1 | CCC1(CC(=O)O)OCCc2c1[nH]c1c(OC(C)C(F)(F)F)c(Cl)ccc21 (stereo not drawn) [Example 5, 7-chloro-1-ethyl-1,3,4,9-tetrahydro-8-(1-methyl-2,2,2-trifluoroethoxy)-pyrano[3,4-b]indole-1-acetic acid] | 41% | 31% | 
2 | CCC1(CC(=O)O)OCCc2c1[nH]c1c(OCC(F)(F)F)cccc21 (stereo not drawn) [Example 6, 1-Ethyl-1,3,4,9-tetrahydro-8-(2,2,2-trifluoroethoxy)pyrano[3,4-b]indole-1-acetic Acid] |  |  | ED50 (Adjuvant Edema): 4.3 mg/kg; ED50 [1]: > 200 mg/kg
3 | CCC1(CC(=O)O)OCCc2c1[nH]c1c(OCC(F)(F)F)ccc(C)c21 (stereo not drawn) [Example 1, 1-Ethyl-1,3,4,9-tetrahydro-5-methyl-8-(2,2,2-trifluoroethoxy)pyrano[3,4-b]indole-1-acetic Acid] |  | 34% | ED50 (Adjuvant Edema): 16.4 mg/kg
4 | CCC1(CC(=O)O)OCCc2c1[nH]c1c(OCC(F)(F)F)ccc(F)c21 (stereo not drawn) [Example 3, 1-ethyl-5-fluoro-1,3,4,9-tetrahydro-8-(2,2,2-trifluoroethoxy)-pyrano[3,4-b]indole-1-acetic acid] | 70% | 18% | 
5 | C#CCOc1cccc2c3c([nH]c12)C(CC)(CC(=O)O)OCC3 (stereo not drawn) [Example 8, 1-Ethyl-1,3,4,9-tetrahydro-8-[(2-propynyl)oxy]-pyrano[3,4-b]indole-1-aceticAcid] | 34% |  | 
6 | C=CCOc1cccc2c3c([nH]c12)C(CC)(CC(=O)O)OCC3 (stereo not drawn) [Example 7, 1-ethyl-1,3,4,9-tetrahydro-8-[(2-propenyl)oxy]-pyrano[3,4-b]indole-1-aceticacid] | 41% | 18% | 
7 | CCC1(CC(=O)O)OCCc2c1[nH]c1c(OCC(F)(F)F)c(F)ccc21 (stereo not drawn) [Example 4, 7-fluoro-1-ethyl-1,3,4,9-tetrahydro-8-(2,2,2-trifluoroethoxy)-pyrano[3,4-b]indole-1-acetic acid] |  | 0% | Preventative Adjuvant Edema, percent inhibition (Adjuvant Edema; dose 10 mg/kg): 83%
8 | CCC1(CC(=O)O)OCCc2c1[nH]c1c(OCC(F)(F)F)c(Cl)ccc21 (stereo not drawn) [Example 2, 7-Chloro-1-ethyl-1,3,4,9-tetrahydro-8-(2,2,2-trifluoroethoxy)pyrano[3,4-b]indole-1-acetic Acid] |  |  | Preventative Adjuvant Edema, percent inhibition (Adjuvant Edema; dose 3 mg/kg): 50%; ED50 [1]: 77 mg/kg
